Data on four compounds can be found in ChEMBL document CHEMBL1201862, “PubChem BioAssay data set” (2004).

A short description of assay [1]: Intein inhibitors as potential Tuberculosis drugs, a cytotoxicity screen. [Related pubchem assays (depositor defined):AID2221, AID2223, AID434968, AID435010, AID449749, AID449750, AID489010]. The class given is functional.
For assay [2], the target named is T1, DNA repair protein RAD52 homolog (Homo sapiens, UniProt P43351).
T1 sequence (P43351 whole entry): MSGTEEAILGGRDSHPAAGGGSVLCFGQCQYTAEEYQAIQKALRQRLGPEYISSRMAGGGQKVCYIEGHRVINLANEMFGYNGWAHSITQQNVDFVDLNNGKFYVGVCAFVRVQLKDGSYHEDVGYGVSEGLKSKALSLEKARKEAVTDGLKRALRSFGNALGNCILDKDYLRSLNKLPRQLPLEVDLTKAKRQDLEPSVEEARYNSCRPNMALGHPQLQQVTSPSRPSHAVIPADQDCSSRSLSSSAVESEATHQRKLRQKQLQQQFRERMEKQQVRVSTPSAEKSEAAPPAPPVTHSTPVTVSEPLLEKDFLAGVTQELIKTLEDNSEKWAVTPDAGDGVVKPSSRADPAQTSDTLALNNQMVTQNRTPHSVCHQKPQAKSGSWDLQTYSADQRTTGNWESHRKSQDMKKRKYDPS
It counts as functional, biochemical.

Assay [3] addresses Heat shock protein HSP 90-alpha (Homo sapiens, UniProt P07900). Description: Luminescence-based dose response biochemical high throughput screening assay for inhibitors of the Heat Shock Protein 90 (HSP90). [Related pubchem assays: 1831 (Summary AID.), 1846 (Confirmation screen.), 1789 (Primary screen.)].
In the next assay the test system is Streptococcus. Description: GAS UMAA2166 growth inhibition – luminescence, BacTiterGlo, counter-screen for streptokinase expression inhibitor project, dose response (AID 1915).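 Further: potency for reduction of bacterial viability or growth.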 It counts as functional, organism-based. A general note: A counterscreen serves to expose hits that act by an unwanted route or on another target.
Assay [4] has as its system Streptococcus sp. 'group A'. Description: Streptococcus pyogenes SK(-)GAS viability under kanamycin – luminescence, BacTiterGlo, confirmation, counter-screen for streptokinase expression inhibitor project, dose response (AID 1900). The class given is functional, organism-based.
The target in the next assay is T2, Hexokinase HKDC1 (Homo sapiens, UniProt Q2TB90).
T2 sequence (Q2TB90 whole entry): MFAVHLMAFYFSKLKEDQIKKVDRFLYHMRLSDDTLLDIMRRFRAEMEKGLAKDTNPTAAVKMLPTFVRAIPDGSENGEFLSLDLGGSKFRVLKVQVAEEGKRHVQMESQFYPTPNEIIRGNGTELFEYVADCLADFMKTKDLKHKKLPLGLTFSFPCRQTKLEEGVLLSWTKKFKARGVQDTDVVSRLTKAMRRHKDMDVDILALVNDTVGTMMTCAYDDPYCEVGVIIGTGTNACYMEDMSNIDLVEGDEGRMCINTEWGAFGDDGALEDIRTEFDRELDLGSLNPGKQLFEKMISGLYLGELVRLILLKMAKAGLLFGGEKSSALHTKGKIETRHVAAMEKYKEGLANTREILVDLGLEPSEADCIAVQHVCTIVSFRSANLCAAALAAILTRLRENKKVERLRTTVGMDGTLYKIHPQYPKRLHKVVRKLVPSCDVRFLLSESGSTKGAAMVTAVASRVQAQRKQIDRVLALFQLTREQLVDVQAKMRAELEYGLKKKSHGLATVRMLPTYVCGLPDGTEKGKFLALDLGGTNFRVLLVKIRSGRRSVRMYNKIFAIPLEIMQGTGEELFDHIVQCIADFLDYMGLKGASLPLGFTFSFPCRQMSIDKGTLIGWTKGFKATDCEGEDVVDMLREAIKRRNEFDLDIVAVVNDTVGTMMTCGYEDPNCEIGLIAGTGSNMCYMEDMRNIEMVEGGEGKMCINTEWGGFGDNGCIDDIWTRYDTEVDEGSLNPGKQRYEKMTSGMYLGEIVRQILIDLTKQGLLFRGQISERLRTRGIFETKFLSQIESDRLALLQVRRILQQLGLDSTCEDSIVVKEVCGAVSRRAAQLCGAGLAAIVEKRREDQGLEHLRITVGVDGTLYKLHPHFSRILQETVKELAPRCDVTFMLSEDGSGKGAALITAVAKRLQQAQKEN
As to the kind of experiment: inhibition of HKDC1 glucose phosphorylation – biochemical, W721R variant, dose response (AID 504729). The class given is functional.

Assay [5] addresses Serine/threonine-protein phosphatase PP1-alpha catalytic subunit (Homo sapiens, UniProt P62136). As to the kind of experiment: inhibition of protein phosphatase 1 activity – biochemical, fluorescence, dose response (AID 2394).
Assay [6] is described as follows: NIH3T3 cell viability loss – ATP luminescence, mouse fibroblasts, counter-screen, dose response (AID 2010).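 Further: cells exposed to compound for about 90 hours before reading.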 It counts as functional, cell-based.
Assay [7] concerns the target Neurotensin receptor type 1 (Homo sapiens, UniProt P30989). It counts as functional.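 Further: Image-based confirmatory dose-response assay measuring agonist activity at NTR1; NTR1-expressing U2OS osteosarcoma cells imaged for beta-arrestin GFP spot formation; agonist potency where compounds increase beta-arrestin recruitment.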
The nature of assay [8]: Trypanosoma cruzi growth suppression in host cells – NIH3T3 host cells, beta-gal luminescence, confirmation (AID 2044).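 Further: intracellular parasites grown in NIH/3T3 mouse fibroblasts as host cells; luminescent beta-galactosidase reporter signal from transgenic T. cruzi replicating inside host cells; inhibitors lower the luminescence signal.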 The class given is functional, cell-based.
The target in a further assay is CAAX prenyl protease 1 (Saccharomyces cerevisiae S288c, UniProt P47154). As to the kind of experiment: yeast CAAX protease Ste24 inhibition – biochemical, S. cerevisiae, plate reader, cherry-pick, dose response (AID 488815).
Sequence of CAAX prenyl protease 1 (P47154 whole entry): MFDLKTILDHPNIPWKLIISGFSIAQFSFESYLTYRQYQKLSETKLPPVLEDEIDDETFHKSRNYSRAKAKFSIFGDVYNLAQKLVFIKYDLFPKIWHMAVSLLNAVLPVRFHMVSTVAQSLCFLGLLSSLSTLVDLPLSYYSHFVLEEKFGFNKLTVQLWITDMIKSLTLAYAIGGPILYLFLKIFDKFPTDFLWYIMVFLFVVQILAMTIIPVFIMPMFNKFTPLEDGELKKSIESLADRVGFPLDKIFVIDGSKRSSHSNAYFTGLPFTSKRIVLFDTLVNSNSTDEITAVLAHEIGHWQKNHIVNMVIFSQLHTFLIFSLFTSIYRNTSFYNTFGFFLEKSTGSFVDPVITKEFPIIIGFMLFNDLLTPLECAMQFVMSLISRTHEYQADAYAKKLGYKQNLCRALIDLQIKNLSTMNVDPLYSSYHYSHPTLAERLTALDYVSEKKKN
The target in a further assay is T3, CAAX prenyl protease 2 (Saccharomyces cerevisiae S288c, UniProt Q03530).
T3 sequence (Q03530 whole entry): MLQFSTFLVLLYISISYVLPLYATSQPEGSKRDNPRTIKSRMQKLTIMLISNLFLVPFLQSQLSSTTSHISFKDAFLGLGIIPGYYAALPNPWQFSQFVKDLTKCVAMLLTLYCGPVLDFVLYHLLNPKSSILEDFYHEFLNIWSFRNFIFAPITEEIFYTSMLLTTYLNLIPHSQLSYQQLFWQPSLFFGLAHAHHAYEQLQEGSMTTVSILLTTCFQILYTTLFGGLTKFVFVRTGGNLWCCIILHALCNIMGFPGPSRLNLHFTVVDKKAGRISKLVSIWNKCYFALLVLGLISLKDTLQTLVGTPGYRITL
The class given is biochemical.

The nature of assay [9]: Luminescence Cell-Based Dose Response HTS to Identify Inhibitors of 5'UTR Stem-Loop Driven Prion Protein mRNA Translation in H4 Neuroglioblastoma Cells. [Related pubchem assays: 1827 (Project Summary), 1813 (Primary HTS)]. It counts as functional.
A further assay addresses Paired box protein Pax-8 (Homo sapiens, UniProt Q06710). As to the kind of experiment: PAX8 transcriptional activity inhibition in RMG-I – RMG-I cells, luciferase, cherry-pick, dose response (AID 687027).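 Further: luciferase reporter driven by Pax8 target thyroperoxidase promoter measured by SteadyGlo luminescence.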 It counts as functional, cell-based.
The nature of assay [10]: alpha-synuclein stem-loop luciferase translation blockers – H4 neuroglioma cells, luminescence, confirmation (AID 1988). The class given is functional, cell-based.
Assay [11] is described as follows: luciferase reporter signal suppression in cells – H4 neuroglioma cells, luminescence, dose response (AID 1990). It counts as functional, cell-based. In general terms: In a reporter assay the amount or activity of a reporter protein is the signal.
In the next assay the target is Nonstructural protein 1 (Influenza A virus, UniProt Q194T2). It counts as functional, Influenza A virus (A/California/07/2009(H1N1)).
Sequence of Nonstructural protein 1 (Q194T2 whole entry): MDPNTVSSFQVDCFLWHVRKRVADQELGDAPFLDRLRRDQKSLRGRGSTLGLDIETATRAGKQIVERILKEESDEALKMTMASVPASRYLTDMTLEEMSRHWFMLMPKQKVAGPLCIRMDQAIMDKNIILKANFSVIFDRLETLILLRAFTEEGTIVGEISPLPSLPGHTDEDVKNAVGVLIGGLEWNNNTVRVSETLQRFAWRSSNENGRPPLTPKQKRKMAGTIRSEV

Active and inactive are the calls of the source.
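Wherever CC50 is given: cells exposed to compound for 72 hours before luminescence readout.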

Sequence of Neurotensin receptor type 1 (P30989 whole entry): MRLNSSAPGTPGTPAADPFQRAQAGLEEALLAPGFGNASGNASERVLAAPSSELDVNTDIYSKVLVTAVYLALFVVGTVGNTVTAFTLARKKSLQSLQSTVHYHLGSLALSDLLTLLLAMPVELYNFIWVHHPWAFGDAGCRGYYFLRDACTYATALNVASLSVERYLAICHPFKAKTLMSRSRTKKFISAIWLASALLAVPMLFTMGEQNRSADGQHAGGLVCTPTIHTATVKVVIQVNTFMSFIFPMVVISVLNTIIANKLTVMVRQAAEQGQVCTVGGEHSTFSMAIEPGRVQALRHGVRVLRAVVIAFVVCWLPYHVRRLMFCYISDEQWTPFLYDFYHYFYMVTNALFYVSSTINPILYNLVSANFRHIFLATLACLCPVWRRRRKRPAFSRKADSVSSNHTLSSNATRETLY
Sequence of Serine/threonine-protein phosphatase PP1-alpha catalytic subunit (P62136 whole entry): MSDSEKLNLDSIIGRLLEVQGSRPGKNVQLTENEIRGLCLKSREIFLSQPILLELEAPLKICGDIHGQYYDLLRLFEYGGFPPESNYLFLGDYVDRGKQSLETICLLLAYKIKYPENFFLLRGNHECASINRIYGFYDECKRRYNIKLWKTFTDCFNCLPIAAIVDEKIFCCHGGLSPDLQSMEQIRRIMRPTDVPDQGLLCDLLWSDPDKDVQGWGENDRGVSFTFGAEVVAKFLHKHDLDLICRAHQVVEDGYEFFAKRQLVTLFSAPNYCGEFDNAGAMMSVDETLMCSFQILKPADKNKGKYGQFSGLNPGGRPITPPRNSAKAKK
Sequence of Paired box protein Pax-8 (Q06710 whole entry): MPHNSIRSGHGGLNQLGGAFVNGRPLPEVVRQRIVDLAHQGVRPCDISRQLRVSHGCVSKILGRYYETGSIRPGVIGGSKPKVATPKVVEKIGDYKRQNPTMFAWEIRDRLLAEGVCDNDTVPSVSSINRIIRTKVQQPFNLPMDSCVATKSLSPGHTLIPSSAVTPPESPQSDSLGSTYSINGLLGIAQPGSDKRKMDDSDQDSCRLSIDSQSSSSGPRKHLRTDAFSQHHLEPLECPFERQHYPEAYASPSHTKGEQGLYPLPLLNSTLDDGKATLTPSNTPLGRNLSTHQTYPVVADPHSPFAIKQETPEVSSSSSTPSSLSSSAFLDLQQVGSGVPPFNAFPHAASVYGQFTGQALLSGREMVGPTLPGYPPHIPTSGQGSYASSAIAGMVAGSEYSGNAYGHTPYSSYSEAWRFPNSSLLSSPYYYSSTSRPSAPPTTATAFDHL

Usually CC50 stands for the concentration giving 50% cytotoxicity. One may read the AC50 as the concentration at which the activity in the assay is half-maximal. On to `COc1cc2c(cc1OC)-c1c(OC)c(OC)cc3c1C(C2)N(C)CC3` (configuration not stated), for which the CC50 in assay [1] is > 40 µM (active). Further, the AC50 in assay [2] was 2.14 µM (active).
A word on the IC50: it is the concentration at which inhibition is half-maximal. Broadly, the EC50 is the midpoint of the concentration-response curve. As for `CCc1ccc(S(=O)(=O)/N=C2\C=C(Nc3cccc(C(=O)O)c3)C(=O)c3ccccc32)cc1`, the IC50 in assay [3] was 0.926 µM (active); at Hexokinase HKDC1, 4.78 µM (active); in assay [5], 22.7 µM (not active). The EC50 in the assay on Streptococcus was 1.9 µM (active); in assay [4] it was 1.26 µM (active).
`CCCCCCCCCCOC(=O)Cn1c(COc2cccc(OC)c2)[n+](C)c2ccccc21`: the results for the EC50 in assay [6], in [7] and in assay [8] were > 60 µM (not active), 14.3 µM (active) and 0.765 µM (active), respectively. Besides, the AC50 at CAAX prenyl protease 1 was 2.11 µM (active); on CAAX prenyl protease 2 it was 65.2 µM (active).
Turning to `COc1cc(OC)c(NC2=CC(=O)C(=O)c3ccccc32)cc1Cl`, the figures for the EC50 in assay [9], in [10] and in [11] were 3.7 µM (active), 0.197 µM (active) and 0.412 µM (active), respectively. Also, at Paired box protein Pax-8, the AC50 was 3.4 µM (active). In addition, the IC50 on Nonstructural protein 1 was > 100 µM (active).
